Measurements taken from PubChem BioAssay AID212 (DTP/NCI, 2004).
Where “and” joins values, the source holds several entries; their conditions need not be identical. Equal values may be shown once. Results filed as inconclusive are left out.

Test system: BDF1 mice, colon carcinoma 38 sc, T/C %
Assay: NCI In Vivo Anticancer Drug Screen. Data for tumor model Colon Carcinoma 38 (subcutaneous) in B6D2F1 (BDF1) mice
Procedure: The antitumor activity of compounds was measured in mice bearing transplantable tumors. Survival or tumor size were measured and the results are expressed as the measurement made in the treated group (T) divided by the measurement made in the vehicle treated control group (C). The tumor model used in this assay is Colon Carcinoma 38 (subcutaneous) in B6D2F1 (BDF1) mice

[1] = endpoint: median tumor weight (est.), dose: 50.0 mg/kg/injection, schedule: Q07DX002 (ip), vehicle: suspension in saline, higher = larger tumour
[2] = endpoint: median tumor weight (est.), dose: 225.0 mg/kg/injection, schedule: Q07DX002 (ip), vehicle: saline with Tween-80, higher = larger tumour
[3] = endpoint: median tumor weight (est.), dose: 6.25 mg/kg/injection, schedule: Q07DX002 (ip), vehicle: saline, higher = larger tumour
[4] = endpoint: median tumor weight (est.), dose: 12.5 mg/kg/injection, schedule: Q07DX002 (ip), vehicle: saline, higher = larger tumour
[5] = endpoint: median tumor weight (est.), dose: 25.0 mg/kg/injection, schedule: Q07DX002 (ip), vehicle: saline, higher = larger tumour
[6] = endpoint: median tumor weight (est.), dose: 100.0 mg/kg/injection, schedule: Q07DX002 (ip), vehicle: saline with Tween-80, higher = larger tumour
[7] = endpoint: median tumor weight (est.), dose: 200.0 mg/kg/injection, schedule: Q07DX002 (ip), vehicle: saline with Tween-80, higher = larger tumour

## CCOC(=O)CC(SP(=S)(OC)OC)C(=O)OCC (stereo not drawn)
[1]
  T/C: 114 % of control
endpoint: median tumor weight (est.), dose: 56.0 mg/kg/injection, schedule: Q07DX002 (ip), vehicle: saline with Tween-80, higher = larger tumour
  T/C: 67 % of control
endpoint: median tumor weight (est.), dose: 100.0 mg/kg/injection, schedule: Q07DX002 (ip), vehicle: suspension in saline, higher = larger tumour
  T/C: 119 % of control
endpoint: median tumor weight (est.), dose: 112.0 mg/kg/injection, schedule: Q07DX002 (ip), vehicle: saline with Tween-80, higher = larger tumour
  T/C: 102 % of control
endpoint: median tumor weight (est.), dose: 200.0 mg/kg/injection, schedule: Q07DX002 (ip), vehicle: suspension in saline, higher = larger tumour
  T/C: 49 % of control
[2]
  T/C: 88 % of control
endpoint: median tumor weight (est.), dose: 400.0 mg/kg/injection, schedule: Q07DX002 (ip), vehicle: suspension in saline, higher = larger tumour
  T/C: 69 % of control

## O=CC(O)C(O)C(O)C(O)C(=O)O.[NH-]C1CCCCC1[NH-].[Pt+2] (stereo not drawn)
endpoint: median tumor weight (est.), dose: 3.12 mg/kg/injection, schedule: Q07DX002 (ip), vehicle: saline, higher = larger tumour
  T/C: 56 % of control
[3]
  T/C: 23 % of control and 24 % of control and 34 % of control
[4]
  T/C: 10 % of control and 22 % of control and 34 % of control
[5]
  T/C: 12 % of control and 15 % of control

## CC[N](CC)[Ge]([CH2]C)[CH2]C.CC[N](CC)[Ge]([CH2]C)[CH2]C
[3]
  T/C: 87 % of control
endpoint: median tumor weight (est.), dose: 6.25 mg/kg/injection, schedule: Q07DX002 (ip), vehicle: suspension in saline, higher = larger tumour
  T/C: 77 % of control
[4]
  T/C: 77 % of control
endpoint: median tumor weight (est.), dose: 12.5 mg/kg/injection, schedule: Q07DX002 (ip), vehicle: suspension in saline, higher = larger tumour
  T/C: 69 % of control
[5]
  T/C: 79 % of control
endpoint: median tumor weight (est.), dose: 25.0 mg/kg/injection, schedule: Q07DX002 (ip), vehicle: suspension in saline, higher = larger tumour
  T/C: 95 % of control
endpoint: median tumor weight (est.), dose: 50.0 mg/kg/injection, schedule: Q07DX002 (ip), vehicle: saline, higher = larger tumour
  T/C: 77 % of control
[1]
  T/C: 84 % of control
endpoint: median tumor weight (est.), dose: 100.0 mg/kg/injection, schedule: Q07DX002 (ip), vehicle: saline, higher = larger tumour
  T/C: 61 % of control

## CC(=O)OCC1(C)NC(=O)c2ccccc2O1 (stereo not drawn)
endpoint: median tumor weight (est.), dose: 56.2 mg/kg/injection, schedule: Q07DX002 (ip), vehicle: saline with Tween-80, higher = larger tumour
  T/C: 54 % of control
[6]
  T/C: 98 % of control
endpoint: median tumor weight (est.), dose: 112.5 mg/kg/injection, schedule: Q07DX002 (ip), vehicle: saline with Tween-80, higher = larger tumour
  T/C: 62 % of control
[7]
  T/C: 109 % of control
[2]
  T/C: 69 % of control
endpoint: median tumor weight (est.), dose: 400.0 mg/kg/injection, schedule: Q07DX002 (ip), vehicle: saline with Tween-80, higher = larger tumour
  T/C: 153 % of control
endpoint: median tumor weight (est.), dose: 450.0 mg/kg/injection, schedule: Q07DX002 (ip), vehicle: saline with Tween-80, higher = larger tumour
  T/C: 48 % of control
endpoint: median tumor weight (est.), dose: 900.0 mg/kg/injection, schedule: Q07DX002 (ip), vehicle: saline with Tween-80, higher = larger tumour
  T/C: 48 % of control

## N#Cc1nc(C#N)c(Sc2ccccc2)c(Sc2ccccc2)c1Sc1ccccc1
endpoint: median tumor weight (est.), dose: 6.25 mg/kg/injection, schedule: Q07DX002 (ip), vehicle: saline with Tween-80, higher = larger tumour
  T/C: 93 % of control
endpoint: median tumor weight (est.), dose: 12.5 mg/kg/injection, schedule: Q07DX002 (ip), vehicle: saline with Tween-80, higher = larger tumour
  T/C: 30 % of control
endpoint: median tumor weight (est.), dose: 25.0 mg/kg/injection, schedule: Q07DX002 (ip), vehicle: saline with Tween-80, higher = larger tumour
  T/C: 67 % of control
endpoint: median tumor weight (est.), dose: 50.0 mg/kg/injection, schedule: Q07DX002 (ip), vehicle: saline with Tween-80, higher = larger tumour
  T/C: 78 % of control
[6]
  T/C: 92 % of control
[7]
  T/C: 54 % of control

## CO[C@H]1C[C@](C)(O)Cc2cc3c(c(O)c21)C(=O)c1c(O)cc2c(c1C3=O)O[C@@H]1O[C@@]2(C)[C@H](O)[C@@H](N(C)C)[C@@H]1O
endpoint: median survival time, dose: 72.0 mg/kg/injection, schedule: Q07DX003 (sc), vehicle: other, higher = longer survival
  T/C: 166 % of control
endpoint: median tumor weight (est.), dose: 12.5 mg/kg/injection, schedule: Q07DX002 (ip), vehicle: other, higher = larger tumour
  T/C: 69 % of control
endpoint: median tumor weight (est.), dose: 25.0 mg/kg/injection, schedule: Q07DX002 (ip), vehicle: other, higher = larger tumour
  T/C: 21 % of control and 41 % of control
endpoint: median tumor weight (est.), dose: 50.0 mg/kg/injection, schedule: Q07DX002 (ip), vehicle: other, higher = larger tumour
  T/C: 1 % of control
